# From patent US6828450B2, “Triptycene analogs” (Kansas State University Research Foundation, priority 2000, dated 2004)
# Experiments:
# HL-60-RV cells [1] = assay: HL-60-RV (MDR) cell proliferation assay; assay type: cell-based, human; settings: for IC50: read-out: IC50, inhibition of HL-60-RV cell proliferation
# Description: (§1) The MDR HL-60-RV and HL-60-R8 cells were developed in Melvin S. Center's laboratory (Kansas State University) and similarly maintained in RPMI 1640 medium in the absence of drugs (Marsh W, et al, Cancer Res 46: 4053-4057, 1986; McGrath T et al, and Center M S: Biochem Biophys Res Commun 145: 1171-1176, 1987; Marsh W and Center M S: Cancer Res 47: 5080-5086, 1987; McGrath T, et al, Biochem Pharmacol 38: 3611-3619, 1989; Marquardt D, et al, Cancer Res 50: 1426-1430, 1990; Marquardt D and Center M S: J Natl Cancer Inst 83: 1089-1109, 1991; Krishnamachary N and Center M S; Cancer Res 53: 3658-3661, 1993). Every 4 weeks, these HL-60-RV and HL-60-R8 sublines were exposed to 41 nM DAU for 48 h to stabilize their MDR phenotype. This concentration of DAU, which is not cytotoxic to MDR HL-60 sublines, was removed from the culture medium at least 48 h before experimentation. […] RFs were determined by dividing the IC50 of the MDR cells by that of the sensitive WT parent cell line.
# HL-60-R8 cells [2] = assay: HL-60-R8 (MDR) cell proliferation assay; assay type: cell-based, human; settings: read-out: IC50, inhibition of HL-60-R8 cell proliferation
# Description: as §1
# HL-60-RV cells [3] = assay: DNA synthesis in HL-60-RV cells; assay type: cell-based, human; settings: for IC50: read-out: IC50, inhibition of DNA synthesis in HL-60-RV cells
# HL-60-R8 cells [4] = assay: DNA synthesis in HL-60-R8 cells; assay type: cell-based, human; settings: read-out: IC50, inhibition of DNA synthesis in HL-60-R8 cells
# HL-60-R8 cells [5] = assay: Nucleoside transport in HL-60-R8 cells; assay type: cell-based, human; settings: 15-min preincubation, 30 s
# Description: FIG. 15. Comparison of the concentration-dependent inhibitions of the cellular transport of purine (A) and pyrimidine (B) nucleosides by DAU (open symbols) and TT2 (closed symbols) in HL-60-S (circles), HL-60-RV (squares) and HL-60-R8 (triangles) cells in vitro. Results are expressed as % of ^3H-adenosine (26,032±2,239 cpm, 100±9%, striped area in A) and ^3H-thymidine (17,934±1,398 cpm, 100±8%, striped area in B) transported into vehicle-treated control cells over 30 s.
# as §1, with “phenotype.” for “phenotype. This concentration of DAU, which is not cytotoxic to MDR HL-60 sublines, was removed from the culture medium at least 48 h before experimentation.”, “line. […]” for “line.”
# L1210 cells = assay: Mitotic index of L1210 cells; assay type: cell-based, murine; settings: 24 h; for decrease of the % of mitotic cells: DAU 0.256-1.6 μM, highest concentrations of TT2 tested
# Method: FIG. 18. Effects of the novel TT analog TT2 and DAU on the mitotic index of L1210 cells in vitro. […] Cells (10^6/0.5 ml of RPMI 1640 medium) were incubated in triplicate for 24 h at 37° C. in the presence or absence (control) of 0.256, 0.64, 1.6 and 4 μM TT2, 0.256, 0.64 and 1.6 μM DAU, 0.2 μM VCR or 1 μM H10. After fixation with MeOH:acetic acid (3:1) and staining with 0.1% crystal violet, about 500 cells/slide were scored for mitotic figures and the mitotic index was expressed as the % of mitotic cells in drug-treated cultures divided by the % of mitotic cells in non-treated controls. The mean % of mitotic cells in control at 24 h was 1.86±0.43%.
# L1210 cells (about 1×10^6/0.5 ml of FCS-containing RPMI 1640 medium) were incubated in triplicate for 24 h at 37° C. in the presence or absence of TTs or known antimitotic drugs, and collected by centrifugation at 200×g for 10 min to determine their mitotic index. For hypotonic treatment, cells were resuspended in 1 ml of 75 mM KCl for 20 min at 4° C. After fixation in 1 ml of MeOH:acetic acid (3:1), the final cell pellets were collected by centrifugation, resuspended in 75 μl of MeOH:acetic acid (3:1), dispensed onto glass slides, air dried, and stained by spreading 40 μl of 0.1% crystal violet under a coverslip. The % of cells in mitosis was determined microscopically by counting 500 cells/slides. The mitotic index was calculated as the % of mitotic cells in drug-treated cultures divided by the % of mitotic cells in non-treated controls.
# [6] = target: Malaria protease plasmepsin II (Plasmodium falciparum, UniProt P46925); assay: Inhibition of malaria protease plasmepsin II; assay type: biochemical
# Chain of Malaria protease plasmepsin II (P46925 125-453): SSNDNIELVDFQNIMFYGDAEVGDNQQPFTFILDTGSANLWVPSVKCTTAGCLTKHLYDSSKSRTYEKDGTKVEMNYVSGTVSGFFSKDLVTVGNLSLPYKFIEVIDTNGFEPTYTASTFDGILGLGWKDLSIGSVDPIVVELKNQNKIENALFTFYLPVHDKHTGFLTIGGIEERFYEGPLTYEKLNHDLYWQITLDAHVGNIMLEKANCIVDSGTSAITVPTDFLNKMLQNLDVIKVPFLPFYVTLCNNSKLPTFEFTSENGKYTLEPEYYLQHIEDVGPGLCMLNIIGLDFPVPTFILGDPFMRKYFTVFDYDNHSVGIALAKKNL
# [7] = HL-60-RV and HL-60-R8 vs HL-60-S
# [8] = HL-60-RV and HL-60-R8 vs HL-60-S, day 2
# [9] = HL-60-RV and HL-60-R8 vs HL-60-S, day 4
structure (smiles),measurement,setting,value
"COC1=CC(=O)C2=C(C1=O)C1C3=C(C(=O)C=CC3=O)C2c2ccccc21 (stereo not drawn) [TT2, 2-Methoxy-9,10-dihydro-9,10-[1′,2′]benzenoanthracene-1,4,5,8-tetraone]","RFs, tumor cell growth, viability and DNA synthesis together",HL-60-RV cells [1]; [7],0.9-1.5
same,"RFs, cell proliferation (IC50 of MDR cells / IC50 of WT HL-60-S)",HL-60-RV cells [1]; [8],0.9-1.3
same,"RFs, cell proliferation (IC50 of MDR cells / IC50 of WT HL-60-S)",HL-60-RV cells [1]; [9],0.9-1.0
same,IC50,HL-60-RV cells [1]; day 2,500 nM
same,IC50,HL-60-RV cells [1]; day 4,260 nM
same,IC50,HL-60-R8 cells [2]; day 2,350 nM
same,IC50,HL-60-R8 cells [2]; day 4,290 nM
same,"RFs, DNA synthesis (IC50 of MDR cells / IC50 of WT HL-60-S)",HL-60-RV cells [3]; [7],1.2
same,IC50,HL-60-RV cells [3],2100 nM
same,IC50,HL-60-R8 cells [4],2100 nM
same,IC50,"HL-60-R8 cells [5]; purine nucleoside, read-out: IC50, cellular transport of 3H-adenosine in HL-60-R8 cells",3700 nM
same,IC50,"HL-60-R8 cells [5]; pyrimidine nucleoside, read-out: IC50, cellular transport of 3H-thymidine in HL-60-R8 cells",2300 nM
same,effect on the mitotic index,L1210 cells,does not increase
same,decrease of the % of mitotic cells,L1210 cells,38-48%
"COc1cccc2c1C(=O)c1c(O)c3c(c(O)c1C2=O)C[C@@](O)(C(C)=O)C[C@@H]3O[C@H]1C[C@H](N)[C@H](O)[C@H](C)O1 [DAU, daunomycin, reference compound]",times less effective as cytostatic agent in MDR than in WT HL-60 cells,HL-60-RV cells [1]; [7],about 30 times
same,"RFs, cell proliferation (IC50 of MDR cells / IC50 of WT HL-60-S)",HL-60-RV cells [1]; [8],22.9-35.7
same,"RFs, cell proliferation (IC50 of MDR cells / IC50 of WT HL-60-S)",HL-60-RV cells [1]; [9],25.0-30.6
same,IC50,"HL-60-RV cells [1]; Homo sapiens, 48 h",500 nM
same,IC50,"HL-60-RV cells [1]; Homo sapiens, 96 h",275 nM
same,IC50,"HL-60-R8 cells [2]; Homo sapiens, 48 h",320 nM
same,IC50,"HL-60-R8 cells [2]; Homo sapiens, 96 h",225 nM
same,"RFs, DNA synthesis (IC50 of MDR cells / IC50 of WT HL-60-S)",HL-60-RV cells [3]; [7],8.1-11.9
same,"times MDR sublines are less sensitive, DNA synthesis",HL-60-RV cells [3]; [7],10 times
same,IC50,HL-60-RV cells [3]; Homo sapiens,2500 nM
same,IC50,HL-60-R8 cells [4]; Homo sapiens,1700 nM
same,decrease of the % of mitotic cells,L1210 cells,74-91%
"COC1=C(Br)C(=O)C2=C(C1=O)C1C3=C(C(=O)C=C(N(C)C)C3=O)C2c2ccccc21 (stereo not drawn) [TT16, 2-Bromo-3-methoxy-6-(dimethylamino)-9,10-dihydro-9,10-[1′,2′]benzenoanthracene-1,4,5,8-tetraone]",IC50,[6],23600 nM
